Data taken from patent US12577206B2 (BRISTOL-MYERS SQUIBB COMPANY, priority 2020, dated 2026).

These compounds were tested against T1, human FPR2 (Homo sapiens, UniProt P25090) (assay: FPR2 cyclic adenosine monophosphate (cAMP) assay). Conditions: CHO cells overexpressing human FPR2; forskolin 5 μM; inhibition of cAMP production; HTRF; read-out: hFPR2 cAMP2 EC50.
T1 sequence (P25090 1-351): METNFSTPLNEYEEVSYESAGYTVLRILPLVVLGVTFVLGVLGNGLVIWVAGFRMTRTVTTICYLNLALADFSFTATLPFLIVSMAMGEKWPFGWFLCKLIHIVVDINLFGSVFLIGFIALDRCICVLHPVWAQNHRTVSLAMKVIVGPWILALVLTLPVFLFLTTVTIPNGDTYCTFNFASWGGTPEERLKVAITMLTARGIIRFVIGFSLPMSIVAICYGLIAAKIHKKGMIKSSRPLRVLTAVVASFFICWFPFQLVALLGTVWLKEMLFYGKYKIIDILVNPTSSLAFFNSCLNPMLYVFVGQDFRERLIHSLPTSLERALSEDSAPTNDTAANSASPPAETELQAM
Assay type: cell-based
Text: (§1) N-formyl peptide receptors (FPRs) are a family of chemo attractant receptors that facilitate leukocyte response during inflammation. FPRs belong to the seven-transmembrane G protein-coupled receptor superfamily and are linked to inhibitory G-proteins (Gi). Three family members (FPR1, FPR2 and FPR3) have been identified in humans and are predominantly found in myeloid cells with varied distribution and have also been reported in multiple organs and tissues. After agonist binding, the FPRs activate a multitude of physiological pathways, such as intra cellular signaling transduction, Ca^2+ mobilization and transcription. The family interacts with a diverse set of ligands that includes proteins, polypeptides and fatty acid metabolites which activate both pro-inflammatory and pro-resolution downstream responses. FPR2 and FPR1 Cyclic Adenosine Monophosphate (cAMP) Assays were used to measure the in vitro activity of the compounds disclosed in this application.
(§2) FPR2 and FPR1 Cyclic Adenosine Monophosphate (cAMP) Assays. A mixture of forskolin (5 μM final for FPR2 or 10 μM final for FPR1) and IBMX (200 μM final) were added to 384-well Proxiplates (Perkin-Elmer) pre-dotted with test compounds in DMSO (1% final) at final concentrations in the range of 0.020 nM to 100 μM. Chinese Hamster Ovary cells (CHO) overexpressing human FPR1 or human FPR2 receptors were cultured in F-12 (Ham's) medium supplemented with 10% qualified FBS, 250 μg/mL zeocin and 300 μg/mL hygromycin (Life Technologies). Reactions were initiated by adding 2,000 human FPR2 cells per well or 4,000 human FPR1 cells per well in Dulbecco's PBS (with calcium and magnesium) (Life Technologies) supplemented with 0.1% BSA (Perkin-Elmer). The reaction mixtures were incubated for 30 min at rt. The level of intracellular cAMP was determined using the HTRF HiRange cAMP assay reagent kit (Cisbio) according to manufacturer's instruction. Solutions of cryptate conjugated anti-cAMP and d2 flurorophore-labeled cAMP were made in a supplied lysis buffer separately. Upon completion of the reaction, the cells were lysed with equal volume of the d2-cAMP solution and anti-cAMP solution. […] The potency and activity of a compound to inhibit cAMP production was then determined by fitting to a 4-parametric logistic equation from a plot of cAMP level versus compound concentrations.

SMILES	EC50 [nM]
COc1cc(F)c(-c2c(NC(=O)c3ccc(OC(F)F)cc3)c(=O)n(-c3ccccc3)n2C)c(F)c1 [Example 1, N-[5-(2,6-difluoro-4-methoxyphenyl)-1-methyl-3-oxo-2-phenyl-2,3-dihydro-1H-pyrazol-4-yl]-4-(difluoromethoxy)benzamide]	12
COc1cc(F)c(-c2c(NC(=O)c3ccc(OC(F)(F)F)cc3)c(=O)n(-c3cccc(F)c3)n2C)c(F)c1 [Example 2, N-[5-(2,6-difluoro-4-methoxyphenyl)-2-(3-fluorophenyl)-1-methyl-3-oxo-2,3-dihydro-1H-pyrazol-4-yl]-4-(trifluoromethoxy)benzamide]	5
COc1cc(F)c(-c2c(NC(=O)c3ccc(OC(F)F)cc3)c(=O)n(-c3cccc(C)c3C)n2C)c(F)c1 [Example 3, N-[5-(2,6-difluoro-4-methoxyphenyl)-2-(2,3-dimethylphenyl)-1-methyl-3-oxo-2,3-dihydro-1H-pyrazol-4-yl]-4-(difluoromethoxy)benzamide]	8
COc1cc(F)c(-c2c(NC(=O)c3ccc(OC(F)F)cc3)c(=O)n(-c3cc(C(F)F)ccn3)n2C)c(F)c1 [Example 76, N-[5-(2,6-difluoro-4-methoxyphenyl)-2-[4-(difluoromethyl)pyridin-2-yl]-1-methyl-3-oxo-2,3-dihydro-1H-pyrazol-4-yl]-4-(difluoromethoxy)benzamide]	12
COc1cc(CO)nc(-n2c(=O)c(NC(=O)c3ccc(OC(F)F)cc3)c(-c3c(F)cc(OC)cc3F)n2C)c1 [Example 90, N-[5-(2,6-difluoro-4-methoxyphenyl)-2-[6-(hydroxymethyl)-4-methoxypyridin-2-yl]-1-methyl-3-oxo-2,3-dihydro-1H-pyrazol-4-yl]-4-(difluoromethoxy)benzamide]	8
COc1cc(N2CCCC2)nc(-n2c(=O)c(NC(=O)c3ccc(OC(F)F)cc3)c(-c3c(F)cc(OC)cc3F)n2C)c1 [Example 91, N-(5-(2,6-difluoro-4-methoxyphenyl)-2-(4-methoxy-6-(pyrrolidin-1-yl)pyridin-2-yl)-1-methyl-3-oxo-2,3-dihydro-1H-pyrazol-4-yl)-4-(difluoromethoxy)benzamide]	20
COc1cc(NCCO)nc(-n2c(=O)c(NC(=O)c3ccc(OC(F)F)cc3)c(-c3c(F)cc(OC)cc3F)n2C)c1 [Example 94, N-[5-(2,6-difluoro-4-methoxyphenyl)-2-{6-[(2-hydroxyethyl)amino]-4-methoxypyridin-2-yl}-1-methyl-3-oxo-2,3-dihydro-1H-pyrazol-4-yl]-4-(difluoromethoxy)benzamide]	6
COc1cc(N2CC[C@@H](O)C2)nc(-n2c(=O)c(NC(=O)c3ccc(OC(F)F)cc3)c(-c3c(F)cc(OC)cc3F)n2C)c1 [Example 95, N-[5-(2,6-difluoro-4-methoxyphenyl)-2-{6-[(3R)-3-hydroxypyrrolidin-1-yl]-4-methoxypyridin-2-yl}-1-methyl-3-oxo-2,3-dihydro-1H-pyrazol-4-yl]-4-(difluoromethoxy)benzamide]	8
COc1cc(N2CC(C)(O)C2)nc(-n2c(=O)c(NC(=O)c3ccc(OC(F)F)cc3)c(-c3c(F)cc(OC)cc3F)n2C)c1 [Example 96, N-[5-(2,6-difluoro-4-methoxyphenyl)-2-[6-(3-hydroxy-3-methylazetidin-1-yl)-4-methoxypyridin-2-yl]-1-methyl-3-oxo-2,3-dihydro-1H-pyrazol-4-yl]-4-(difluoromethoxy)benzamide]	7
COc1cc(N2CC[C@H](F)C2)nc(-n2c(=O)c(NC(=O)c3ccc(OC(F)F)cc3)c(-c3c(F)cc(OC)cc3F)n2C)c1 [Example 98, N-[5-(2,6-difluoro-4-methoxyphenyl)-2-{6-[(3S)-3-fluoropyrrolidin-1-yl]-4-methoxypyridin-2-yl}-1-methyl-3-oxo-2,3-dihydro-1H-pyrazol-4-yl]-4-(difluoromethoxy)benzamide]	6
COc1cc(N2CCC(F)(F)C2)nc(-n2c(=O)c(NC(=O)c3ccc(OC(F)F)cc3)c(-c3c(F)cc(OC)cc3F)n2C)c1 [Example 99, N-[5-(2,6-difluoro-4-methoxyphenyl)-2-[6-(3,3-difluoropyrrolidin-1-yl)-4-methoxypyridin-2-yl]-1-methyl-3-oxo-2,3-dihydro-1H-pyrazol-4-yl]-4-(difluoromethoxy)benzamide]	4
COc1cc(N2CCN(C)CC2)nc(-n2c(=O)c(NC(=O)c3ccc(OC(F)F)cc3)c(-c3c(F)cc(OC)cc3F)n2C)c1 [Example 101, N-[5-(2,6-difluoro-4-methoxyphenyl)-2-[4-methoxy-6-(4-methylpiperazin-1-yl)pyridin-2-yl]-1-methyl-3-oxo-2,3-dihydro-1H-pyrazol-4-yl]-4-(difluoromethoxy)benzamide]	3
COc1cc(F)c(-c2c(NC(=O)c3ccc(OC(F)F)cc3)c(=O)n(-c3cccc(N4C[C@@H](C)N(C)[C@@H](C)C4)n3)n2C)c(F)c1 [Example 103, N-[5-(2,6-difluoro-4-methoxyphenyl)-1-methyl-3-oxo-2-{6-[(3R,5S)-3,4,5-trimethylpiperazin-1-yl]pyridin-2-yl}-2,3-dihydro-1H-pyrazol-4-yl]-4-(difluoromethoxy)benzamide]	1
COc1cc(N2C3CCC2CN(C)C3)nc(-n2c(=O)c(NC(=O)c3ccc(OC(F)F)cc3)c(-c3c(F)cc(OC)cc3F)n2C)c1 [Example 105, N-[5-(2,6-difluoro-4-methoxyphenyl)-2-(4-methoxy-6-{3-methyl-3,8-diazabicyclo[3.2.1]octan-8-yl}pyridin-2-yl)-1-methyl-3-oxo-2,3-dihydro-1H-pyrazol-4-yl]-4-(difluoromethoxy)benzamide]	1
COc1cc(N2CC(OC(C)C)C2)nc(-n2c(=O)c(NC(=O)c3ccc(OC(F)F)cc3)c(-c3c(F)cc(OC)cc3F)n2C)c1 [Example 106, N-[5-(2,6-difluoro-4-methoxyphenyl)-2-{4-methoxy-6-[3-(propan-2-yloxy)azetidin-1-yl]pyridin-2-yl}-1-methyl-3-oxo-2,3-dihydro-1H-pyrazol-4-yl]-4-(difluoromethoxy)benzamide]	5
COc1cc(F)c(-c2c(NC(=O)c3ccc(OC(F)F)cc3)c(=O)n(-c3cccc(N4CCN(CCO)CC4)n3)n2C)c(F)c1 [Example 107, N-[5-(2,6-difluoro-4-methoxyphenyl)-2-{6-[4-(2-hydroxyethyl)piperazin-1-yl]pyridin-2-yl}-1-methyl-3-oxo-2,3-dihydro-1H-pyrazol-4-yl]-4-(difluoromethoxy)benzamide]	5
COc1cc(OC)cc(-n2c(=O)c(NC(=O)c3ccc(OC(F)F)cc3)c(-c3c(F)cc(OC)cc3F)n2C)c1 [Example 108]	3
COc1cc(C2CCNCC2)nc(-n2c(=O)c(NC(=O)c3ccc(OC(F)F)cc3)c(-c3c(F)cc(OC)cc3F)n2C)c1 [Example 367, N-(5-(2,6-Difluoro-4-methoxyphenyl)-2-(4-methoxy-6-(piperidin-4-yl)pyridin-2-yl)-1-methyl-3-oxo-2,3-dihydro-1H-pyrazol-4-yl)-4-(difluoromethoxy)benzamide]	1

These compounds were tested against T2, human FPR1 (Homo sapiens, UniProt P21462) (assay: FPR1 cyclic adenosine monophosphate (cAMP) assay). Conditions: CHO cells overexpressing human FPR1; forskolin 10 μM; inhibition of cAMP production; HTRF; read-out: hFPR1 cAMP2 EC50.
T2 sequence (P21462 1-350): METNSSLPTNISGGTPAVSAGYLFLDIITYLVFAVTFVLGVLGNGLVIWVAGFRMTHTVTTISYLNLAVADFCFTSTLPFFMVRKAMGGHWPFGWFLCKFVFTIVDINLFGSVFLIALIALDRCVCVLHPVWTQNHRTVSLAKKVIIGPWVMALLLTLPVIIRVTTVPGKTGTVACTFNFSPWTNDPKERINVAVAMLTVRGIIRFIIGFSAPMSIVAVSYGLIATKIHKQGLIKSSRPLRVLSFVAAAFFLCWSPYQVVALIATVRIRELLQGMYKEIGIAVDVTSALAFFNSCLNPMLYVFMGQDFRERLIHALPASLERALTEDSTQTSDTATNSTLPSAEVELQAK
Assay type: cell-based
Text: as §1, §2

SMILES	EC50 [nM]
COc1cc(F)c(-c2c(NC(=O)c3ccc(OC(F)F)cc3)c(=O)n(-c3ccccc3)n2C)c(F)c1 [Example 1, N-[5-(2,6-difluoro-4-methoxyphenyl)-1-methyl-3-oxo-2-phenyl-2,3-dihydro-1H-pyrazol-4-yl]-4-(difluoromethoxy)benzamide]	2400
COc1cc(F)c(-c2c(NC(=O)c3ccc(OC(F)(F)F)cc3)c(=O)n(-c3cccc(F)c3)n2C)c(F)c1 [Example 2, N-[5-(2,6-difluoro-4-methoxyphenyl)-2-(3-fluorophenyl)-1-methyl-3-oxo-2,3-dihydro-1H-pyrazol-4-yl]-4-(trifluoromethoxy)benzamide]	210
COc1cc(F)c(-c2c(NC(=O)c3ccc(OC(F)F)cc3)c(=O)n(-c3cccc(C)c3C)n2C)c(F)c1 [Example 3, N-[5-(2,6-difluoro-4-methoxyphenyl)-2-(2,3-dimethylphenyl)-1-methyl-3-oxo-2,3-dihydro-1H-pyrazol-4-yl]-4-(difluoromethoxy)benzamide]	1900
COc1cc(F)c(-c2c(NC(=O)c3ccc(OC(F)F)cc3)c(=O)n(-c3cc(OC(C)C)cc(OCCO)n3)n2C)c(F)c1 [Example 378, N-(5-(2,6-Difluoro-4-methoxyphenyl)-2-(6-(2-hydroxyethoxy)-4-isopropoxypyridin-2-yl)-1-methyl-3-oxo-2,3-dihydro-1H-pyrazol-4-yl)-4-(difluoromethoxy)benzamide]	25
